Measurements published in patent US10947289B2, “Glyco-modified atrial natriuretic peptide” (priority 2013, dated 2021).

Molecular target: T1, human GC-A (Homo sapiens, UniProt P16066)
T1 construct: expressed in transfected cells; host or cells: CHO cells
T1 sequence (P16066 33-1061): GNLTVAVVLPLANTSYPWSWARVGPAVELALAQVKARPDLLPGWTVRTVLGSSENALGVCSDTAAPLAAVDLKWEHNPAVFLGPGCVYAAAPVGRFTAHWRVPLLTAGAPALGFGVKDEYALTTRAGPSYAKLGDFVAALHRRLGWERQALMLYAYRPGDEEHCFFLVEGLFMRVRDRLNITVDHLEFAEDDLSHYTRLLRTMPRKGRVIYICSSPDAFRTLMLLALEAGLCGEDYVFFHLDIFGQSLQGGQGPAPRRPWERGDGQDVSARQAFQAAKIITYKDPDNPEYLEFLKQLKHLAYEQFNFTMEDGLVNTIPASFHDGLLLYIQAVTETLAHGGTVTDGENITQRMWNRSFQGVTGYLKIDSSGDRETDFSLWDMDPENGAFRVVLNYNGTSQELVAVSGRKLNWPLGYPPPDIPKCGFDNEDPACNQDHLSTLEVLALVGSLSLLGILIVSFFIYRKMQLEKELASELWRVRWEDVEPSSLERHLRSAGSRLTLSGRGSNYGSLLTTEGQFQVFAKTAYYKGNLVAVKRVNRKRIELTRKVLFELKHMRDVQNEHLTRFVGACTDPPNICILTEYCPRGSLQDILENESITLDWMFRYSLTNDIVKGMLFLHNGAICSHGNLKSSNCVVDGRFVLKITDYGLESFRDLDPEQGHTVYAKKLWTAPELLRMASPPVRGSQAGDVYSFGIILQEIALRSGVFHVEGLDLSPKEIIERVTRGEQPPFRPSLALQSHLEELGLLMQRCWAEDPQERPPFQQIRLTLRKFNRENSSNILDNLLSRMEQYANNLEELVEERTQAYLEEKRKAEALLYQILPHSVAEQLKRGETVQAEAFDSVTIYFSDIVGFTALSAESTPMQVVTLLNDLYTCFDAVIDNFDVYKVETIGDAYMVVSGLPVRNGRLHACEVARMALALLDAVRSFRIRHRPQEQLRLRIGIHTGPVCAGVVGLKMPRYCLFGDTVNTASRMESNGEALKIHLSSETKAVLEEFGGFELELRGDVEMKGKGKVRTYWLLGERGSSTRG
Assay: cGMP elevating activity in CHO/human GC-A cells (Test Example 1)
Type: cell-based
Protocol: The cGMP elevating activity of each modified peptide prepared in Example 2 was measured by the following method:
CHO/human GC-A cells, which are CHO cells constitutively expressing human GC-A, were suspended at 2×10^5 cells/ml in α-MEM, 10% FBS, and 1% penicillin-streptomycin, inoculated at 20 μl/well (4×10^3 cells/well) onto a 384-well plate (Corning, 3826), and cultured overnight in a CO2 incubator. On the next day, the medium was removed from this plate, and then, 1.6 mM IBMX/KRB buffer was added thereto at 10 μl/well. The mixture was stirred on a plate shaker and then incubated at room temperature for 10 minutes. […] The mixture was stirred on a plate shaker and then incubated for 15 minutes in a CO2 incubator. Thereafter, a lysis buffer (50 mM phosphate buffer, pH 7.0, and 1% Triton X-100) was added thereto at 5 μl/well. The cells were lysed by stirring for 10 minutes on a plate shaker. Subsequently, the cGMP levels in the cell lysates were measured by use of a cGMP kit (manufactured by Cisbio Bioassays). Specifically, to a 384-well plate (Greiner, 784076), 5 μl/well of a diluent attached to the kit, 5 μl/well of the cell lysate, 5 μl/well of cGMP-d2, and 5 μl/well of anti cGMP-Cryptate were added. The mixture was stirred on a plate shaker and then incubated overnight at 4° C. in the dark, followed by the measurement of homogeneous time-resolved fluorescence using RubyStar (manufactured by BMG LABTECH JAPAN Ltd.). The activity value (T/C) of the test substance at each concentration was calculated when the activity value of a well supplemented with only a solvent was defined as 0 and the activity value of a well supplemented with 1 nM ANP was defined as 1.

Row | SMILES | EC50
1 | CC[C@H](C)[C@@H]1NC(=O)[C@H](CCCNC(=N)N)NC(=O)[C@H](CC(=O)O)NC(=O)[C@H](CCSC)NC(=O)[C@H](CCCNC(=N)N)NC(=O)CNC(=O)CNC(=O)[C@H](Cc2ccccc2)NC(=O)[C@@H](NC(=O)[C@H](CO)NC(=O)[C@H](CO)NC(=O)[C@H](CCCNC(=N)N)NC(=O)[C@H](CCCNC(=N)N)NC(=O)[C@H](CC(C)C)NC(=O)[C@H](CO)NC(=O)CCOCCOCCOCCOCCOCCOCCOCCOCCOCCOCCOCCOCCNC(=O)CCOCCOCCOCCOCCOCCOCCOCCOCCOCCOCCOCCOCCNC(=O)[C@H](CC(=O)N[C@@H]2O[C@H](CO)[C@@H](O[C@@H]3O[C@H](CO)[C@@H](O[C@@H]4O[C@H](CO[C@H]5O[C@H](CO)[C@@H](O)[C@H](O)[C@@H]5O[C@@H]5O[C@H](CO)[C@@H](O[C@@H]6O[C@H](CO[C@]7(C(=O)O)C[C@H](O)[C@@H](NC(C)=O)[C@H]([C@H](O)[C@H](O)CO)O7)[C@H](O)[C@H](O)[C@H]6O)[C@H](O)[C@H]5NC(C)=O)[C@@H](O)[C@H](O[C@H]5O[C@H](CO)[C@@H](O)[C@H](O)[C@@H]5O[C@@H]5O[C@H](CO)[C@@H](O[C@@H]6O[C@H](CO[C@]7(C(=O)O)C[C@H](O)[C@@H](NC(C)=O)[C@H]([C@H](O)[C@H](O)CO)O7)[C@H](O)[C@H](O)[C@H]6O)[C@H](O)[C@H]5NC(C)=O)[C@@H]4O)[C@H](O)[C@H]3NC(C)=O)[C@H](O)[C@H]2NC(C)=O)NC(=O)CO[C@@H]2O[C@H](CO)[C@@H](O[C@@H]3O[C@H](CO)[C@@H](O[C@@H]4O[C@H](CO[C@H]5O[C@H](CO)[C@@H](O)[C@H](O)[C@@H]5O[C@@H]5O[C@H](CO)[C@@H](O[C@@H]6O[C@H](CO[C@]7(C(=O)O)C[C@H](O)[C@@H](NC(C)=O)[C@H]([C@H](O)[C@H](O)CO)O7)[C@H](O)[C@H](O)[C@H]6O)[C@H](O)[C@H]5NC(C)=O)[C@@H](O)[C@H](O[C@H]5O[C@H](CO)[C@@H](O)[C@H](O)[C@@H]5O[C@@H]5O[C@H](CO)[C@@H](O[C@@H]6O[C@H](CO[C@]7(C(=O)O)C[C@H](O)[C@@H](NC(C)=O)[C@H]([C@H](O)[C@H](O)CO)O7)[C@H](O)[C@H](O)[C@H]6O)[C@H](O)[C@H]5NC(C)=O)[C@@H]4O)[C@H](O)[C@H]3NC(C)=O)[C@H](O)[C@H]2NC(C)=O)CSSC[C@@H](C(=O)N[C@@H](CC(N)=O)C(=O)N[C@@H](CO)C(=O)N[C@@H](Cc2ccccc2)C(=O)N[C@@H](CCCNC(=N)N)C(=O)N[C@@H](Cc2ccc(O)cc2)C(=O)O)NC(=O)CNC(=O)[C@H](CC(C)C)NC(=O)CNC(=O)[C@H](CO)NC(=O)[C@H](CCC(N)=O)NC(=O)[C@H](C)NC(=O)CNC1=O [Compound 2-28, SG-(SG-)Asn-PEG(11)-PEG(11)-hANP(1-28)] | 310 pM
2 | CC[C@H](C)[C@@H]1NC(=O)[C@H](CCCNC(=N)N)NC(=O)[C@H](CC(=O)O)NC(=O)[C@H](CCSC)NC(=O)[C@H](CCCNC(=N)N)NC(=O)CNC(=O)CNC(=O)[C@H](Cc2ccccc2)NC(=O)[C@@H](NC(=O)[C@H](CO)NC(=O)[C@H](CO)NC(=O)[C@H](CCCNC(=N)N)NC(=O)[C@H](CCCNC(=N)N)NC(=O)[C@H](CC(C)C)NC(=O)[C@H](CO)NC(=O)CCOCCOCCOCCOCCNC(=O)CCSC2CC(=O)N(CCC(=O)N[C@@H](CCC(=O)NCCO[C@@H]3O[C@H](CO)[C@@H](O[C@@H]4O[C@H](CO)[C@@H](O[C@@H]5O[C@H](CO[C@H]6O[C@H](CO)[C@@H](O)[C@H](O)[C@@H]6O[C@@H]6O[C@H](CO)[C@@H](O[C@@H]7O[C@H](CO[C@]8(C(=O)O)C[C@H](O)[C@@H](NC(C)=O)[C@H]([C@H](O)[C@H](O)CO)O8)[C@H](O)[C@H](O)[C@H]7O)[C@H](O)[C@H]6NC(C)=O)[C@@H](O)[C@H](O[C@H]6O[C@H](CO)[C@@H](O)[C@H](O)[C@@H]6O[C@@H]6O[C@H](CO)[C@@H](O[C@@H]7O[C@H](CO[C@]8(C(=O)O)C[C@H](O)[C@@H](NC(C)=O)[C@H]([C@H](O)[C@H](O)CO)O8)[C@H](O)[C@H](O)[C@H]7O)[C@H](O)[C@H]6NC(C)=O)[C@@H]5O)[C@H](O)[C@H]4NC(C)=O)[C@H](O)[C@H]3NC(C)=O)C(=O)NCCO[C@@H]3O[C@H](CO)[C@@H](O[C@@H]4O[C@H](CO)[C@@H](O[C@@H]5O[C@H](CO[C@H]6O[C@H](CO)[C@@H](O)[C@H](O)[C@@H]6O[C@@H]6O[C@H](CO)[C@@H](O[C@@H]7O[C@H](CO[C@]8(C(=O)O)C[C@H](O)[C@@H](NC(C)=O)[C@H]([C@H](O)[C@H](O)CO)O8)[C@H](O)[C@H](O)[C@H]7O)[C@H](O)[C@H]6NC(C)=O)[C@@H](O)[C@H](O[C@H]6O[C@H](CO)[C@@H](O)[C@H](O)[C@@H]6O[C@@H]6O[C@H](CO)[C@@H](O[C@@H]7O[C@H](CO[C@]8(C(=O)O)C[C@H](O)[C@@H](NC(C)=O)[C@H]([C@H](O)[C@H](O)CO)O8)[C@H](O)[C@H](O)[C@H]7O)[C@H](O)[C@H]6NC(C)=O)[C@@H]5O)[C@H](O)[C@H]4NC(C)=O)[C@H](O)[C@H]3NC(C)=O)C2=O)CSSC[C@@H](C(=O)N[C@@H](CC(N)=O)C(=O)N[C@@H](CO)C(=O)N[C@@H](Cc2ccccc2)C(=O)N[C@@H](CCCNC(=N)N)C(=O)N[C@@H](Cc2ccc(O)cc2)C(=O)O)NC(=O)CNC(=O)[C@H](CC(C)C)NC(=O)CNC(=O)[C@H](CO)NC(=O)[C@H](CCC(N)=O)NC(=O)[C@H](C)NC(=O)CNC1=O (some centres unmarked) [Compound 2-31, SG-(SG-)Gln*-Mal-PEG(3)-hANP(1-28)] | 310 pM
